The values that follow are results of earlier work, collected in patent publication US5886190A, “Rapid synthesis and use of 18F-fluoromisonidazole and analogs” (priority 1997, dated 1999).

The subject of data set [1] is patients. The note with it: clinical trials; cited from earlier work.
Data set [2] has as its system cancer of the pharynx. The note with it: cited from earlier work.

For `O=C(Cn1ccnc1[N+](=O)[O-])NCCO` [etanidazole], the Dose-limiting toxicity entry in data set [1] is given as “peripheral neuropathy that progressed to central nervous system toxicity if drug administration was not stopped”. Moreover, the Radiosensitizer potency entry in data set [2] (human, in vivo) was “potent radiosensitizers”. Also, the “Clinical benefit on addition” value in data set [2] (patients with high hemoglobin levels and cancer of the pharynx) is on record as “great benefit”.
